Test results published in PubChem BioAssay (NCI).
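Protocol summary: plate cells (96-well), add compound at 5 concentrations, incubate 48 h, interpolate endpoints linearly. GI50 is the concentration that inhibits growth by half. At the TGI there is no net growth.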

What was measured:
Experiment in all cases: NCI tumour cell line growth inhibition, 48 h
BT-549 breast = test system: BT-549 breast
NCI-H23 lung = test system: NCI-H23 lung
NCI-H226 lung = test system: NCI-H226 lung
UACC-257 melanoma = test system: UACC-257 melanoma
CCRF-CEM leukemia = test system: CCRF-CEM leukemia
RPMI-8226 leukemia = test system: RPMI-8226 leukemia
SR leukemia = test system: SR leukemia
DU-145 prostate = test system: DU-145 prostate
CAKI-1 renal = test system: CAKI-1 renal
SK-OV-3 ovarian = test system: SK-OV-3 ovarian
SK-MEL-2 melanoma = test system: SK-MEL-2 melanoma
MCF7 breast = test system: MCF7 breast
EKVX NSCLC = test system: EKVX NSCLC
NCI/ADR-RES ovarian = test system: NCI/ADR-RES ovarian
LOX IMVI melanoma = test system: LOX IMVI melanoma
HCC-2998 colon = test system: HCC-2998 colon
HL-60(TB) leukemia = test system: HL-60(TB) leukemia
OVCAR-5 ovarian = test system: OVCAR-5 ovarian
OVCAR-8 ovarian = test system: OVCAR-8 ovarian
HOP-62 NSCLC = test system: HOP-62 NSCLC
COLO 205 colon = test system: COLO 205 colon
SNB-19 CNS = test system: SNB-19 CNS
NCI-H522 lung = test system: NCI-H522 lung
HCT-15 colon = test system: HCT-15 colon
U251 CNS = test system: U251 CNS
HCT-116 colon = test system: HCT-116 colon
HOP-92 NSCLC = test system: HOP-92 NSCLC
UO-31 renal = test system: UO-31 renal
HT29 colon = test system: HT29 colon
KM12 colon = test system: KM12 colon
T-47D breast = test system: T-47D breast
UACC-62 melanoma = test system: UACC-62 melanoma
SF-295 CNS = test system: SF-295 CNS
IGROV1 ovarian = test system: IGROV1 ovarian
786-0 renal = test system: 786-0 renal
A498 renal = test system: A498 renal
MDA-MB-231 breast = test system: MDA-MB-231 breast
TK-10 renal = test system: TK-10 renal
SW-620 colon = test system: SW-620 colon
OVCAR-4 ovarian = test system: OVCAR-4 ovarian
NCI-H460 lung = test system: NCI-H460 lung
SK-MEL-5 melanoma = test system: SK-MEL-5 melanoma
M14 melanoma = test system: M14 melanoma
MOLT-4 leukemia = test system: MOLT-4 leukemia
RXF 393 renal = test system: RXF 393 renal
SF-268 CNS = test system: SF-268 CNS
SN12C renal = test system: SN12C renal
MDA-MB-435 = test system: MDA-MB-435
PC-3 prostate = test system: PC-3 prostate
SF-539 CNS = test system: SF-539 CNS
SK-MEL-28 melanoma = test system: SK-MEL-28 melanoma
SNB-75 CNS = test system: SNB-75 CNS
ACHN renal = test system: ACHN renal
A549 NSCLC = test system: A549 NSCLC
K-562 leukemia = test system: K-562 leukemia
HS 578T breast = test system: HS 578T breast
MALME-3M melanoma = test system: MALME-3M melanoma
OVCAR-3 ovarian = test system: OVCAR-3 ovarian

`C/C=C1\NC(=O)[C@H](Cc2ccccc2)NC(=O)[C@@H](C(C)C)NC(=O)[C@@H]([C@@H](C)CC)NC(=O)[C@H](NC(=O)[C@H](NC(=O)[C@H](CCCN)NC(=O)[C@H]2CCCN2C(=O)[C@H](NC(=O)[C@@H](NC(=O)[C@@H](NC(=O)[C@H](NC(=O)CCCC(C)C)C(C)C)[C@@H](C)O)C(C)C)C(C)C)[C@@H](C)CC)[C@@H](C)OC(=O)[C@H](C(C)C)NC1=O` showed a TGI (BT-549 breast) of 12 µM, a TGI (NCI-H23 lung) of 15.2 µM and a TGI (NCI-H226 lung) of 4.24 µM. It also gave a GI50 (UACC-257 melanoma) of 1.02 µM and a TGI (UACC-257 melanoma) of 2.84 µM.
`N=C(N)c1ccc(-c2ccc(-c3ccc(Cl)cc3Cl)s2)cc1F` was tested, and the GI50 (CCRF-CEM leukemia) was 1.8 µM, the TGI (CCRF-CEM leukemia) was 4.67 µM and the GI50 (RPMI-8226 leukemia) was 2.07 µM. The TGI (RPMI-8226 leukemia) was 4.57 µM, the GI50 (SR leukemia) was 1.42 µM and the TGI (SR leukemia) was > 100 µM. It also gave a GI50 (DU-145 prostate) of 1.78 µM, a TGI (DU-145 prostate) of 3.16 µM and a GI50 (CAKI-1 renal) of 1.63 µM. The TGI (CAKI-1 renal) was 2.99 µM, the GI50 (SK-OV-3 ovarian) was 3.05 µM and the TGI (SK-OV-3 ovarian) was 17.5 µM. It also gave a GI50 (SK-MEL-2 melanoma) of 2.21 µM and a TGI (SK-MEL-2 melanoma) of 5.2 µM.
In the case of `COc1cc(C2c3cc4c(cc3OC(Nc3ccc(C(=O)O)cc3)C2C)OCO4)cc(OC)c1OC` (stereo unspecified), the TGI (BT-549 breast) is reported as > 26.8 µM, the TGI (MCF7 breast) is reported as 40 µM and the TGI (EKVX NSCLC) is reported as > 100 µM. For the same molecule, the TGI (NCI/ADR-RES ovarian) was 4.9 µM, the TGI (LOX IMVI melanoma) was > 100 µM and the TGI (HCC-2998 colon) was 0.853 µM. The TGI (CCRF-CEM leukemia) was > 41.8 µM, the TGI (HL-60(TB) leukemia) was 0.541 µM and the TGI (OVCAR-5 ovarian) was > 100 µM. For the same molecule, the TGI (RPMI-8226 leukemia) was 25 µM, the TGI (OVCAR-8 ovarian) was > 100 µM and the TGI (HOP-62 NSCLC) was > 100 µM. For the same molecule, the TGI (COLO 205 colon) was 0.518 µM, the TGI (SNB-19 CNS) was > 93.4 µM and the TGI (NCI-H522 lung) was 6.02 µM. For the same molecule, the TGI (HCT-15 colon) was > 100 µM, the TGI (U251 CNS) was 30 µM and the TGI (HCT-116 colon) was 12.2 µM. For the same molecule, the TGI (HOP-92 NSCLC) was > 74.6 µM, the TGI (UO-31 renal) was 28 µM and the TGI (CAKI-1 renal) was 0.761 µM. The TGI (NCI-H23 lung) was > 68.7 µM, the TGI (HT29 colon) was > 34.2 µM and the TGI (KM12 colon) was 1.66 µM. For the same molecule, the TGI (T-47D breast) was > 100 µM, the TGI (UACC-62 melanoma) was > 61.9 µM and the TGI (SF-295 CNS) was > 100 µM. The TGI (SK-MEL-2 melanoma) was > 59.9 µM, the TGI (IGROV1 ovarian) was > 100 µM and the TGI (786-0 renal) was > 100 µM. The TGI (A498 renal) was > 100 µM, the TGI (MDA-MB-231 breast) was 2.06 µM and the TGI (TK-10 renal) was > 100 µM. The TGI (SW-620 colon) was > 100 µM, the TGI (OVCAR-4 ovarian) was > 52.9 µM and the TGI (NCI-H460 lung) was > 100 µM. For the same molecule, the TGI (SK-MEL-5 melanoma) was 0.522 µM, the TGI (M14 melanoma) was 31.8 µM and the TGI (MOLT-4 leukemia) was 25.8 µM. The TGI (RXF 393 renal) was 92 µM, the TGI (UACC-257 melanoma) was > 94.1 µM and the TGI (SF-268 CNS) was > 39.1 µM. The TGI (SN12C renal) was > 100 µM, the TGI (MDA-MB-435) was 0.265 µM and the TGI (PC-3 prostate) was > 100 µM. The TGI (SF-539 CNS) was 0.561 µM, the TGI (SK-MEL-28 melanoma) was > 100 µM and the TGI (SNB-75 CNS) was 3.53 µM. The TGI (ACHN renal) was > 68.6 µM and the TGI (A549 NSCLC) was > 47.5 µM.
Work on `C(=C\c1n(Cc2ccc3ccccc3c2)c(-c2ccccc2)c(-c2ccccc2)[n+]1Cc1ccc2ccccc2c1)/c1ccccc1` yielded a GI50 (CCRF-CEM leukemia) of 0.406 µM, a TGI (CCRF-CEM leukemia) of 2.09 µM and a GI50 (HL-60(TB) leukemia) of 0.2 µM. It also gave a TGI (HL-60(TB) leukemia) of 0.635 µM, a GI50 (RPMI-8226 leukemia) of 0.0758 µM and a TGI (RPMI-8226 leukemia) of 0.621 µM. For the same molecule, the GI50 (SR leukemia) was 0.313 µM, the TGI (SR leukemia) was > 100 µM and the GI50 (NCI-H23 lung) was 0.257 µM. For the same molecule, the TGI (NCI-H23 lung) was 0.919 µM, the GI50 (HT29 colon) was 0.142 µM and the TGI (HT29 colon) was 1.09 µM. For the same molecule, the GI50 (K-562 leukemia) was 0.222 µM, the TGI (K-562 leukemia) was 5 µM and the GI50 (MOLT-4 leukemia) was 0.292 µM. It also gave a TGI (MOLT-4 leukemia) of 1.26 µM, a GI50 (RXF 393 renal) of 0.26 µM and a TGI (RXF 393 renal) of 1.14 µM. It also gave a GI50 (ACHN renal) of 0.239 µM and a TGI (ACHN renal) of 0.591 µM.
In the case of `CC(C)(C)[Si](C)(C)OCC1OC(n2cnc3c(NC(=O)c4ccccc4)ncnc32)CC1O` (stereo unspecified), the TGI (MCF7 breast) is reported as > 100 µM, the TGI (EKVX NSCLC) is reported as > 100 µM and the TGI (HS 578T breast) is reported as 45.8 µM. The TGI (NCI/ADR-RES ovarian) was 98.7 µM, the TGI (MALME-3M melanoma) was 60.7 µM and the TGI (LOX IMVI melanoma) was 33.9 µM. For the same molecule, the TGI (HCC-2998 colon) was 88.6 µM, the TGI (CCRF-CEM leukemia) was 53.4 µM and the TGI (HL-60(TB) leukemia) was 49.2 µM. For the same molecule, the TGI (OVCAR-5 ovarian) was > 100 µM, the TGI (RPMI-8226 leukemia) was 47 µM and the TGI (OVCAR-8 ovarian) was > 100 µM. The TGI (HOP-62 NSCLC) was 35.5 µM, the TGI (COLO 205 colon) was 33.1 µM and the TGI (SR leukemia) was 49.6 µM. The TGI (SNB-19 CNS) was 74.3 µM, the TGI (NCI-H522 lung) was 37.7 µM and the TGI (HCT-15 colon) was > 100 µM. For the same molecule, the TGI (DU-145 prostate) was > 100 µM, the TGI (U251 CNS) was 51.6 µM and the TGI (HCT-116 colon) was 70.5 µM. The TGI (HOP-92 NSCLC) was 55.2 µM, the TGI (UO-31 renal) was 2.96 µM and the TGI (CAKI-1 renal) was > 100 µM. For the same molecule, the TGI (NCI-H23 lung) was > 100 µM, the TGI (HT29 colon) was > 100 µM and the TGI (KM12 colon) was 87.4 µM. It also gave a TGI (T-47D breast) of 99.5 µM, a TGI (UACC-62 melanoma) of 40.4 µM and a TGI (K-562 leukemia) of 48.2 µM. It also gave a TGI (SK-OV-3 ovarian) of 89.1 µM, a TGI (SF-295 CNS) of 44.2 µM and a TGI (SK-MEL-2 melanoma) of 57.9 µM. It also gave a TGI (IGROV1 ovarian) of 91.3 µM, a TGI (786-0 renal) of 38.6 µM and a TGI (A498 renal) of 60.5 µM. The TGI (MDA-MB-231 breast) was 55.7 µM, the TGI (TK-10 renal) was > 100 µM and the TGI (SW-620 colon) was > 100 µM. The TGI (OVCAR-4 ovarian) was 84.6 µM, the TGI (NCI-H460 lung) was > 100 µM and the TGI (NCI-H226 lung) was 66.5 µM. For the same molecule, the TGI (SK-MEL-5 melanoma) was 33.3 µM, the TGI (M14 melanoma) was 38.5 µM and the TGI (OVCAR-3 ovarian) was 81.1 µM. The TGI (MOLT-4 leukemia) was 49.9 µM, the TGI (RXF 393 renal) was 40.4 µM and the TGI (UACC-257 melanoma) was > 100 µM. For the same molecule, the TGI (SF-268 CNS) was > 100 µM, the TGI (SN12C renal) was > 100 µM and the TGI (MDA-MB-435) was 44.6 µM. The TGI (PC-3 prostate) was 95.5 µM, the TGI (SF-539 CNS) was 41 µM and the TGI (SK-MEL-28 melanoma) was 87.4 µM. For the same molecule, the TGI (SNB-75 CNS) was 60.3 µM, the TGI (ACHN renal) was 95.4 µM and the TGI (A549 NSCLC) was > 100 µM.
